Measurements reported in patent EP4703364A1, “QUINOLONE ANALOG AND USE THEREOF” (Horizon Omics Biotech Limited, priority 2023, dated 2024).

Columns and labels:
[1] = tested on: DLD1 BRCA2^-/-; test: Cell activity assay (CellTiterGlo), BRCA2 gene knockout DLD1 cancer cells; type: cell-based; settings: Homo sapiens, DLD-1, 144 h, read-out: IC50(nM) DLD1 BRCA2^-/-
Protocol: (§1) • (1) Compound Treatment • a) Preparation of Stock Solutions of Compounds Test compounds were dissolved in DMSO at a concentration of 10 mM or 5 mM, and Olaparib was dissolved in DMSO at a concentration of 10 mM. • b) Compound Storage All compounds dissolved in DMSO were stored in a desiccator at room temperature for short-term storage and transferred to a -20°C refrigerator for long-term storage. • c) Preparation of Working Concentrations of Compounds
(§2) Test compounds were serially diluted in DMSO at a 3-fold gradient to prepare 10 concentration gradients, starting from 10 µM.
(§3) Olaparib was serially diluted in DMSO at a 3-fold gradient to prepare 10 concentration gradients, starting from 10 µM.
(§4) The 384-well plate loaded with the compounds was centrifuged at 1000 rpm for 1 minute.
(§5) • a) Cells were added to the culture medium and incubated in a cell culture incubator at 37°C with 5% CO2. • b) 40 µL of BRCA1- or BRCA2-deficient cells were added to a 384-well plate and incubated overnight at 37°C with 5% CO2. • c) The test compounds were prepared at different concentration gradients on the master plate, and 80 nL of the test compounds and Olaparib were taken from the master plate and added to the 384-well plate containing cells, and incubated at 37°C with 5% CO2 for 6 days. • d) CellTiterGlo (30 µL per well) was added to the 384-well plate, and after incubation at room temperature in the dark for 30 minutes, measurement was performed using an Envision plate reader.
(§6) • a) GraphPad Prism software was used to calculate the ICso and plot the activity curves as a function of concentration. • b) The inhibition of cell activity by the compounds was calculated using the following formula: % Inhibition = [1−(Cmpd−Blank)/(DMSO−Blank)]*100 [formula]

[2] = In-vivo pharmacokinetic study in mice (bioavailability testing); settings: mouse, plasma; oral (PO) and intravenous (IV) routes, female Balb/c nude mice
Protocol: Test compounds were administered to mice via oral (PO) and intravenous (IV) routes. The test compounds were dissolved at room temperature. The mice used in the study were Balb/c nude mice, all female, aged 6-8 weeks, with a body weight of 20-30 grams. Before administration, the mice had free access to food and water. Blood samples (approximately 0.03 mL per sample) were collected from the vein at appropriate time points. The samples were placed in tubes containing an anticoagulant and stored on ice until centrifugation. Blood samples were collected at 0.083, 0.25, 0.5, 1, 2, 4, 8, and 24 hours after intravenous administration, and at 0.25, 0.5, 1, 2, 4, 8, and 24 hours after oral administration. The blood samples were centrifuged at approximately 4000 rpm at 2-8 °C for 5 minutes. Plasma samples were then collected and stored frozen at approximately -80 °C until analysis. The LC-MS/MS system was used for bioanalytical work. Table 4. Bioavailability Testing

[3] = Toxicity assay in mice, repeated dosing at 50 mg/kg, body weight; type: in vivo; settings: 50 mg/kg PO once every 3 days; for overall condition / clinical symptoms: 21 days; for overall condition / clinical symptoms / effect on mouse body weight: female mice; for effect on mouse body weight: after 21 days of repeated administration
Protocol: Test compounds were administered to mice via the oral (PO) route. The test compounds were dissolved at room temperature. The mice used in the study were all female, and aged 6-8 weeks. Before administration, the mice had free access to food and water. Vehicle control: 50 mM NaH2PO4, pH 4.0, administered once every 3 days. CX-5461 and Compound H-31 were administered once every 3 days at a dose of 50 mg/kg. If the body weight of the mice decreased by more than 15%, administration was suspended until the body weight recovered, after which administration was resumed.

[4] = tested on: UWB1.289 Cells; test: Cell activity assay (CellTiterGlo), BRCA1 gene-deficient ovarian cancer cells UWB1.289; type: cell-based; settings: UWB1289, 144 h, BRCA1 gene-deficient ovarian cancer cells UWB1.289, 6 days incubation
Protocol: as §1, §2, §3, §4, §5, §6

[5] = target: hERG (Homo sapiens, UniProt Q12809); test: hERG cardiotoxicity assay (patch clamp, hERG stably expressed HEK 293 cell line); type: cell-based; settings: hERG current, HEK 293 cells, 5 doses
Chain of hERG (Q12809 whole entry): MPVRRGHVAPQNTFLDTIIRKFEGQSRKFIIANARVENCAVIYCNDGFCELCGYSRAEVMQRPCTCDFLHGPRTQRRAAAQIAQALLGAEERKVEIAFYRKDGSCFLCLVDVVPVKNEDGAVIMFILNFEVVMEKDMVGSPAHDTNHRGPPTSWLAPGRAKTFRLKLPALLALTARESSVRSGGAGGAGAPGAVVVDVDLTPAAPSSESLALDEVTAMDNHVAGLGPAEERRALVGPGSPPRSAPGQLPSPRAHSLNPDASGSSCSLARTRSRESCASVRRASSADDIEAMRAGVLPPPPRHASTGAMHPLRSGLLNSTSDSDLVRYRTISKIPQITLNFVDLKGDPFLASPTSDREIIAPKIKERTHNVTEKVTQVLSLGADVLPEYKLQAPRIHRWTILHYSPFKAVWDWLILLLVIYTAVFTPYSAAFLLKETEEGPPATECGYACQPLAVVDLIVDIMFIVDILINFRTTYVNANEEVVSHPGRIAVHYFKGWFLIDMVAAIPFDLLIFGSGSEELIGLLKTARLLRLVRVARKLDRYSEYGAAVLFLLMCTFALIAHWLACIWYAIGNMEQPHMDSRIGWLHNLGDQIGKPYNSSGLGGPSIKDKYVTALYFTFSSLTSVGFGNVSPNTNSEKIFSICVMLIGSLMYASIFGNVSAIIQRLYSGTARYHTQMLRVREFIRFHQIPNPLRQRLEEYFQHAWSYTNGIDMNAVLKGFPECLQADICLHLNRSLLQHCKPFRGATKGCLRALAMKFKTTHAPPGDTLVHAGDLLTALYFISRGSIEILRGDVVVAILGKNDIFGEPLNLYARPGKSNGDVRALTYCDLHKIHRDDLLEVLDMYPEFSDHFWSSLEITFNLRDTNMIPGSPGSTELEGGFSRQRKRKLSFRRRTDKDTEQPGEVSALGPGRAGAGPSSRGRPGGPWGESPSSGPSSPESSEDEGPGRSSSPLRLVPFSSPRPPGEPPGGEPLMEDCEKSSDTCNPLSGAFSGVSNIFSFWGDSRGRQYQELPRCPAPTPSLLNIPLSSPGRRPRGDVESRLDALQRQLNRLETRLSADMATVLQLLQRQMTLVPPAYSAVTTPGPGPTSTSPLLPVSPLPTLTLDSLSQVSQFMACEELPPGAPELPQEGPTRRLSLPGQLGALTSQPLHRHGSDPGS
Protocol: Assay Method: 1) The hERG stably expressed HEK 293 cell line (Cat# K1236) was purchased from Invitrogen. Cells were cultured in a medium consisting of 85% DMEM, 10% FBS, 0.1 mM NEAA, 25 mM HEPES, 100 U/mL penicillin-streptomycin, 5 µg/mL Blasticidin, and 400 µg/mL Geneticin. Cells were passaged approximately three times a week using TrypLE™ Express and maintained at ~40% to ~80% confluency. Before assay, cells were placed on coverslips with 5×10^5 cells per 6-cm cell culture dish and induced with 1 µg/mL doxycycline for 48 hours. 2) The coverslip was removed from the cell culture dish and placed on the microscope stage. A suitable cell was located using a 10× objective. The tip of the electrode was located under the microscope using the 10× objective, and the focus was adjusted to the plane of the cell. Once the tip was in focus, the coarse control of the manipulator was used to advance the electrode downward toward the cell while moving the objective to keep the tip in focus. When directly above the cell, the objective was switched to 40× objective, and the fine control of the manipulator was used to approach the cell surface in small steps. 3) A blank control was first performed to establish a baseline. […] In the presence of the test compounds, the hERG current was recorded for approximately 5 minutes to reach a steady state, followed by capturing 5 scans. For dose-response testing, 5 doses of the test compounds were cumulatively applied to the cells from low to high concentrations. The positive control, dofetilide at a concentration of 150 nM, was applied to each cell, and the hERG current was measured in the test compounds at the highest concentration as a negative control to normalize the percentage of inhibition. To ensure good performance of the cultured cells and operations, cells from the same batch were also tested with 5 doses of dofetilide. Table 5. hERG Toxicity Assay Results

[6] = Toxicity assay in mice, repeated dosing at 55 mg/kg, body weight; type: in vivo; settings: 55 mg/kg PO once every 3 days, 4 repeated administrations, female Balb/c mice
Protocol: Test compounds were administered to mice via the oral (PO) route. The test compounds were dissolved at room temperature. The mice (Balb/c) used in the study were all female, and aged 6-8 weeks. Before administration, the mice had free access to food and water.
Vehicle control: 50 mM NaH2PO4, pH 4.0. CX-5461 and the H series compounds were administered once every 3 days at a dose of 55 mg/kg, with four doses administered in total.

[7] = tested on: human herpesvirus HCMV-AD169; test: Antiviral cell-protective activity, GFP-labeled HCMV-AD169 in MRC5 cells; type: cell-based; settings: for EC50: Human betaherpesvirus 5, 168 h, HCMV-AD169 GFP fluorescence, 7 days, read-out: Virus inhibition EC50; for SI (CC50/EC50): therapeutic index, HCMV-AD169
Protocol: MRC5 cells were seeded in microplates at a specific density and cultured overnight in an incubator at 37 °C with 5% CO2. Serially diluted compounds and GFP-labeled human herpesvirus HCMV-AD169 were added to the microplates. A cell control group (cells without compound treatment or viral infection) and a virus control group (cells infected with the virus but without compound treatment) were set up. The test compounds and control compounds were tested at 8 concentrations, with 3-fold serial dilutions and triplicate wells for each concentration. Meanwhile, the cytotoxicity of the test compounds and control compounds on cells was determined. The cells were cultured in an incubator at 37 °C with 5% CO2 for 7 days. Acumen Cellista was used to detect the GFP fluorescence intensity inside the cells in each well. Cell viability detection reagents CCK-8 or Cell Titer Glo were used to measure cell viability, and the original data were used for calculating the cytotoxicity of the test compounds. GraphPad Prism software was applied to analyze the dose-response curves of the test compounds, calculate the virus inhibition EC50 and cytotoxicity CC50 values, and further calculate the therapeutic index (SI), using the formula SI = CC50/EC50, which was used to evaluate the therapeutic potential of the drug; a higher SI value indicates stronger efficacy of the drug against viruses.

[8] = tested on: MDA-MB-436 cancer cells; test: Inhibition of human-derived cancer in mouse model (MDA-MB-436 subcutaneous tumors); type: in vivo, NOD SCID mice; settings: MDA-MB-436 model, oral
Protocol: The anti-cancer efficacy of the compounds of the present application was evaluated in NOD SCID mice. Female mice aged 6-8 weeks were subcutaneously inoculated with MDA-MB-436 cancer cells to form tumors. When the tumors reached a size of 100-150 mm^3, the mice were randomly divided into groups, with 6 mice in each group. The administration route was oral administration. Olaparib was administered once a day at a dose of 100 mg/kg for a total of 28 days. The vehicle control group and Compound H-31 were administered once every 3 days at a dose of 25 mg/kg.

Compound	IC50 [1]	bioavailability [2]	other results
CN1CCCN(c2ccc3c(=O)c(C(=O)NCc4ncc(C#N)cn4)c4sc5ccccc5n4c3n2)CC1 [Compound H-11]	16.2 nM	–	–
CCc1cnc(CNC(=O)c2c(=O)c3ccc(N4CCCN(C)CC4)nc3n3c2sc2ccccc23)nc1 [Compound H-21]	–	66.8%	–
CN1CCCN(c2ccc3c(=O)c(C(=O)NCc4nccc(C5CC5)n4)c4sc5ccccc5n4c3n2)CC1 [Compound H-28]	–	41.6%	–
[2H]C([2H])([2H])N1C([2H])([2H])C([2H])([2H])CN(c2ccc3c(=O)c(C(=O)NCc4ncc(F)cn4)c4sc5ccccc5n4c3n2)C([2H])([2H])C1([2H])[2H] [Compound H-8]	15.9 nM	–	–
Cc1cnc(CNC(=O)c2c(=O)c3ccc(N4CCCN(C)CC4)nc3n3c2sc2ccccc23)cn1 [CX-5461]	43.9 nM	33.8%	overall condition / clinical symptoms [3]: poor overall condition, sluggish movement, and pallor in the tails and toes due to blood loss; effect on mouse body weight [3]: significantly reduced the body weight of the mice; average body weight loss ([3]; administration halted for the entire group): exceeded 10%; IC50 [4]: 91.6 nM; IC50 [5]: 5.1 µM
CN1CCCN(c2ccc3c(=O)c(C(=O)NCc4ncc(C5CC5)cn4)c4sc5ccccc5n4c3n2)CC1 [Compound H-27]	–	59.2%	–
CNC(=O)c1cnc(CNC(=O)c2c(=O)c3ccc(N4CCCN(C)CC4)nc3n3c2sc2ccccc23)nc1 [Compound H-13]	–	–	IC50 [5]: > 30 µM
CNc1cnc(CNC(=O)c2c(=O)c3ccc(N4CCCN(C)CC4)nc3n3c2sc2ccccc23)nc1 [Compound H-19]	30.3 nM	–	–
COc1cnc(CNC(=O)c2c(=O)c3ccc(N4CCCN(C)CC4)nc3n3c2sc2ccccc23)nc1 [Compound H-16]	27.5 nM	–	–
[2H]C1([2H])CN(c2ccc3c(=O)c(C(=O)NCc4ncc(F)cn4)c4sc5ccccc5n4c3n2)C([2H])([2H])C([2H])([2H])N(C)C1([2H])[2H] [Compound H-6]	23.8 nM	–	–
CN1CCCN(c2ccc3c(=O)c(C(=O)NCc4ncc(C(F)(F)F)cn4)c4sc5ccccc5n4c3n2)CC1 [Compound H-4]	36 nM	–	deaths [6]: no deaths observed
CN1CCCN(c2ccc3c(=O)c(C(=O)NCc4ncc(F)cn4)c4sc5ccccc5n4c3n2)CC1 [Compound H-1]	37.7 nM	60.7%	–
CN1CCCN(c2ccc3c(=O)c(C(=O)NCc4nccc(C#N)n4)c4sc5ccccc5n4c3n2)CC1 [Compound H-12]	13.7 nM	49.1%	–
[2H]C([2H])([2H])N1C([2H])([2H])C([2H])([2H])CN(c2ccc3c(=O)c(C(=O)NCc4ncccn4)c4sc5ccccc5n4c3n2)C([2H])([2H])C1([2H])[2H] [Compound H-7]	16.2 nM	–	–
Nc1nc(O)c2ncn(COC(CO)CO)c2n1 [Ganciclovir, reference compound]	–	–	EC50 [7]: 1.6 µM; SI (CC50/EC50) [7]: >60.7
CN1CCCN(c2ccc3c(=O)c(C(=O)NCc4ncc(Cl)cn4)c4sc5ccccc5n4c3n2)CC1 [Compound H-2]	33.8 nM	47.2%	–
CSc1cnc(CNC(=O)c2c(=O)c3ccc(N4CCCN(C)CC4)nc3n3c2sc2ccccc23)nc1 [Compound H-18]	–	–	IC50 [5]: 10.7 µM
CN1CCCN(c2ccc3c(=O)c(C(=O)NCc4ncc(C(=O)N(C)C)cn4)c4sc5ccccc5n4c3n2)CC1 [Compound H-15]	–	–	IC50 [5]: > 30 µM
COc1ccnc(CNC(=O)c2c(=O)c3ccc(N4CCCN(C)CC4)nc3n3c2sc2ccccc23)n1 [Compound H-17]	–	74.6%	deaths [6]: no deaths observed
[2H]C([2H])([2H])N1CCCN(c2ccc3c(=O)c(C(=O)NCc4ncccn4)c4sc5ccccc5n4c3n2)CC1 [Compound H-31]	12.8 nM	43.1%	overall condition / clinical symptoms [3]: no abnormal clinical symptoms were observed; effect on mouse body weight [3]: weight trends similar to the control group; EC50 [7]: 0.03 µM; SI (CC50/EC50) [7]: >101.7; IC50 [4]: 28.8 nM; cancer inhibition rate ([8]; 25 mg/kg once every 3 days): 82.2%
CCc1ccnc(CNC(=O)c2c(=O)c3ccc(N4CCCN(C)CC4)nc3n3c2sc2ccccc23)n1 [Compound H-22]	36.7 nM	40.6%	–
O=C(c1cc(Cc2n[nH]c(=O)c3ccccc23)ccc1F)N1CCN(C(=O)C2CC2)CC1 [Olaparib, reference compound]	490 nM	–	IC50 [4]: 716 nM; cancer inhibition rate ([8]; 100 mg/kg once a day for 28 days): 63.4%
